The source of these data is patent publication US8017350B2, “Glimepiride- and insulin-induced glycosylphosphatidylinositol-specific phospholipase C regulation” (Sanofi-Aventis Deutschland GmbH, priority 2004, dated 2011).

In general, IC50 refers to the concentration at which inhibition is half-maximal.

The subject of the experiment is pp59Lyn and Gce1 / caveolin-1 in hcDIGs of rat adipocytes. Kind of experiment: Dissociation of pp59Lyn and Gce1 from caveolin-1. The class given is cell-based. Conditions: Adipocyte, FIG. 6 Panel B, read-out: IC50 for abrogation of losses from caveolin-1 immunoprecipitates. As to the method:
Solubilized DIGs (see above, 5-20 μg protein) were precleared by incubation with protein A/G-Sepharose and subsequent centrifugation (10,000×g, 5 min). The supernatant was incubated with anti-caveolin-1 antibodies (1:1000) preadsorbed on protein A/G-Sepharose in 1 ml of 10 mM Tris/HCl (pH 7.4), 150 mM NaCl, 1% TX-100 for 1 h at 4° C. The immune complexes were washed twice with the same buffer and then twice with buffer lacking TX-100 and finally subjected to SDS-PAGE performed in the absence of β-mercaptoethanol. The recovery of immunoprecipitated caveolin was normalized by homologous immunoblotting with anti-caveolin antibodies of the same blot following stripping of the membrane.
Next we investigated the putative causal relationship between dissociation from caveolin/activation and stimulus-dependent lipolytic cleavage of GPI-proteins in rat adipocytes by inhibiting GPI-PLC and subsequent analysis of the interaction with caveolin-1 of Gce1 and pp59^Lyn as well as kinase activity of the latter (FIG. 6). […] This potency is similar to GPI-PLC inhibition by GPI-2350 in intact adipocytes (FIG. 3). […]

Molecules are shown by their SMILES.

For the compound `CCCCCCCCCCCCP1(=O)O[C@@H]2[C@H](O)[C@@H](O)[C@H](O)[C@@H](O)[C@@H]2O1` (stereo partly shown) [GPI-2350, myo-inositol-1,2-cyclo-dodecylphosphonic acid], the 50% inhibitory concentration (IC50) is 5 to 10 µM.
